Measured values published in patent US20040019080A1, “Prevention and treatment of migraine and other recurrent headaches using leukotriene LTD4 receptor blocker drugs” (priority 1998, published 2004).
“Also recorded” adds a separate entry of the source. Where two headings read alike, the source gives them in different places.

What was measured:
[1] = test system: patients who suffered from migraine without aura; experiment: Open-label clinical trial of daily montelukast in long-term migraine sufferers
asthma patients [2] = details: cited from earlier work; for safety and tolerability in chronic use: used every day over a continuous period of years
asthma patients [3] = details: cited from earlier work
LTC4 receptors = details: cited from earlier work
patients with migraines = experiment: Post-publication and unsolicited patient/physician reports, chronic and emergent migraine treatment; format: in vivo, human; details: unsolicited letters, comments, website posting
From the text: The Applicant herein (Sheftell) initially published their leukotriene-migraine findings in abstract form and as a poster session in mid-1999, at a conference of physicians who specialize in treating headaches. That presentation was summarized shortly thereafter in Family Practice News, a newsletter for physicians, and it was followed in February 2000 by a full article in a refereed journal (Sheftell et al, “Montelukast in the prophylaxis of migraine: “potential role for leukotriene modifiers,” Headache 40: 158-63 (2000)).

LTE4 receptors = details: cited from earlier work
LTD4 receptors = target: T1, LTD4 receptors (Homo sapiens, UniProt Q9Y271); details: cited from earlier work
T1 sequence (Q9Y271 1-337): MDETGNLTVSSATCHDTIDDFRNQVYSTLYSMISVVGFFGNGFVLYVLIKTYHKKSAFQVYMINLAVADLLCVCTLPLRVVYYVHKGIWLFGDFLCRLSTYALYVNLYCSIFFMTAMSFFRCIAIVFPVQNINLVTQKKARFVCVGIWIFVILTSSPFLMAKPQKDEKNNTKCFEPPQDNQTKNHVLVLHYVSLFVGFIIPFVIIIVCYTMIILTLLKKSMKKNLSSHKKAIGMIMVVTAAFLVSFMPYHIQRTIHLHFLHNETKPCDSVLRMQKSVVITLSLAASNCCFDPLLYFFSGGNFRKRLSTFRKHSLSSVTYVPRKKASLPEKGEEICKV

SMILES | adverse events reported by patients ([1]; 3-month treatment, 17 patients) | patients reporting a decrease in the number of moderate headaches ([1]; all reporting patients) [%] | number of mild headaches reported during treatment ([1]; mild category, baseline 1.53, mean per month (FIG. 2)) | mean number of moderate attacks per month during treatment ([1]; moderate category, baseline 5.5, not statistically significant) [attacks per month] | patients showing a greater than 60% reduction in the frequency of severe attacks ([1]; montelukast 10 mg tablets daily, 3-month treatment vs 2-month baseline, 17 patients) [%] | patients with reduction in frequency of severe attacks after dose escalation ([1]; of 4 patients escalated from 10 mg once daily to 10 mg twice daily) [patients] | patients with a 33% or greater reduction in the frequency of severe attacks ([1]; of the remaining 15 patients) [patients] | mean number of severe attacks per month during treatment ([1]; severe category, baseline 2.78, p<0.025) [attacks per month] | safety and tolerability in chronic use (asthma patients [2]) | asthma patients reporting headaches (asthma patients [3]; nearly 2000 asthma patients tested) [%] | blocking of LTC4 receptors (LTC4 receptors) | time of daily oral ingestion before noticeable effects in reducing the frequency of asthma attacks (asthma patients [2]; tablets, daily oral) | asthma patients reporting headaches (asthma patients [3]; more than 4000 asthma patients tested) [%] | reported outcome of chronic daily use for migraines (patients with migraines) | blocking / activity at LTE4 receptors (LTE4 receptors) | blocking / activity at LTD4 receptors (LTD4 receptors) | users reporting headaches as unwanted side effect (asthma patients [3]; zileuton 4 times daily at 600 mg, placebo 24.0%) [%]
CC(C)(O)c1ccccc1CC[C@@H](SCC1(CC(=O)O)CC1)c1cccc(/C=C/c2ccc3ccc(Cl)cc3n2)c1 [montelukast] | no adverse events were reported; also recorded: None of the patients reported any adverse effects | 70 | 2.02 | 4.68 | 41 | 4 | 13 | 1.31 | generally safe, well-tolerated, and free of serious side effects | 18.4 | – | – | – | – | – | – | –
COc1cc(C(=O)NS(=O)(=O)c2ccccc2C)ccc1Cc1cn(C)c2ccc(NC(=O)OC3CCCC3)cc12 [zafirlukast] | – | – | – | – | – | – | – | – | generally safe, well-tolerated, and free of serious side effects | – | do not appear to block | about 4 weeks | 12.9 | benefitted more from that treatment than from any other treatment | appear to block; also recorded: some level of activity | appear to block; also recorded: some level of activity | –
CC(c1cc2ccccc2s1)N(O)C(N)=O (stereo not drawn) [zileuton] | – | – | – | – | – | – | – | – | – | – | – | – | – | – | – | – | 24.6
